The test system of the test is E. coli (1103 DSMZ). Briefly: Checkerboard assay, composition with antibiotic. The class given is cell-based. The following applies: composition comprising a source of iodide ions and a source of hydrogen peroxide plus antibiotic. Here is the method:
Checkerboard assays were carried out to determine if there is a synergistic antagonistic effect with the addition of an antibiotic to a composition comprising a source of iodide ions and a source of hydrogen peroxide. • E. coli (1103 DSMZ) was used for tests • These tests were carried out in lysogeny broth (lb) • Antibiotics tested were ampicillin and gentamycin • Procedure: • 50 μl antibiotic • 100 μl composition • 150 μl 10^5 cells in LB Results
Cells shaded in dark grey represent sub-inhibitory concentrations where growth prevailed. Bacterial growth was prevented for the remaining cells. […] However, in the presence of both the composition and the antibiotic, the concentrations required to achieve a kill are lower—in other words, the combined MIC is lower. These can be seen by the entries marked with a star (*).

Consider `CC[C@H]1OC(=O)[C@H](C)[C@@H](O[C@H]2C[C@@](C)(OC)[C@@H](O)[C@H](C)O2)[C@H](C)[C@@H](O[C@@H]2O[C@H](C)C[C@H](N(C)C)[C@H]2O)[C@](C)(O)C[C@@H](C)C(=O)[C@H](C)[C@@H](O)[C@]1(C)O` [erythromycin], for which the “Effect of the antibiotic in combination with the composition” value is “synergistic effect”.

With `CC[C@H]1OC(=O)[C@H](C)[C@@H](O[C@H]2C[C@@](C)(OC)[C@@H](O)[C@H](C)O2)[C@H](C)[C@@H](O[C@@H]2O[C@H](C)C[C@H](N(C)C)[C@H]2O)[C@](C)(OC)C[C@@H](C)C(=O)[C@H](C)[C@@H](O)[C@]1(C)O` [clarithromycin], the “Effect of the antibiotic in combination with the composition” value is listed as “synergistic effect”.

Values taken from patent US20240277006A1, “ANTIBIOTIC-FREE ANTIMICROBIAL FEED ADDITIVES AND ANTIMICROBIAL COMPOSITIONS” (Sláinte Beoga Teoranta, priority 2018, published 2024).
